# From US20240158369A1, “PYRIMIDINE COMPOUND AS WEE-1 INHIBITOR” (WIGEN BIOMEDICINE TECHNOLOGY (SHANGHAI) CO., LTD., priority 2021, published 2024)
# Biological target: recombinant protein Wee-1 (Homo sapiens (Human), UniProt P30291)
# Assay: HTRF assay for inhibiting enzymatic activity of recombinant protein Wee-1
# Assay type: biochemical
# Details: compounds up to 200 nM, read-out: (IC50) Inhibitory activity against recombinant protein Wee-1
# Procedure: The inhibitory effect of the compounds on the enzyme activity of recombinant protein Wee-1 was determined by HTRF. The procedures are as follows:
# After DMSO or serially diluted compounds (up to 200 nM, 1:5 diluted) and recombinant proteins were co-incubated in a kinase buffer at 37° C. for 30 min before Fluorescein-PolyGAT and ATP were added, and the reaction was initiated by addition of a substrate. After incubation at room temperature for 90 min, an antibody and a detection solution were added, and after further incubation at room temperature for 60 min, fluorescence values were detected (excitation wavelength: 340 nm, emission wavelengths: 495 and 520 nm). The 520 nm/495 nm fluorescence intensity ratio value was calculated, and compared with that of the DMSO group, and then the inhibition percentages and IC50 values of the compounds were calculated.
# recombinant protein Wee-1, sequence (P30291 whole entry): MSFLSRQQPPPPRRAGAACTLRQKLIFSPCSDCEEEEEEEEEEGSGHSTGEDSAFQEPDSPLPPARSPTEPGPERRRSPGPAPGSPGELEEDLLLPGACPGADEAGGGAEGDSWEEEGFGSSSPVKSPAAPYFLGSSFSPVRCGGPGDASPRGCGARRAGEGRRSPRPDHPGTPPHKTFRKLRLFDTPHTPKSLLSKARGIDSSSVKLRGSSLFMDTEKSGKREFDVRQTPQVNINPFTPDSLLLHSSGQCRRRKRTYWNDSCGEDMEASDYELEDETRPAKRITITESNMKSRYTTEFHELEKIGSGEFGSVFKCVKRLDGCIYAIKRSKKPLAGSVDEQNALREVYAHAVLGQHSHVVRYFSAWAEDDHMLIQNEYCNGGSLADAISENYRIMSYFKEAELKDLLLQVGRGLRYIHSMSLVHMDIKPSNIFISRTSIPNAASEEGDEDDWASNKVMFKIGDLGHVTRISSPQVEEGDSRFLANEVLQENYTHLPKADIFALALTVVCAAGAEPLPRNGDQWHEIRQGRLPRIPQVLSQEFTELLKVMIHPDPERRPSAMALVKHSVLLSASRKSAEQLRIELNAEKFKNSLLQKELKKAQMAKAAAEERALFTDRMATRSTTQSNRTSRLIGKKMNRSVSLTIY
row,Structure (SMILES),IC50 [nM]
1,CN1CCc2c(cc(Nc3ncc(C#N)c(Nc4cccc(N=S(C)(C)=O)n4)n3)cc2C(F)F)C1 [Compound 21],≤ 10
2,CCOc1cc(Nc2ncc(C#N)c(Nc3cccc(N=S(C)(C)=O)n3)n2)cc2c1CCN(C)C2 [Compound 23],≤ 10
3,CC(C)Oc1cc(Nc2ncc(C#N)c(Nc3cccc(N=S(C)(C)=O)n3)n2)cc2c1CCN(C)C2 [Compound 24],≤ 10
4,CN1CCc2c(Cl)cc(Nc3ncc(C#N)c(Nc4cccc(N=S(C)(C)=O)n4)n3)cc2C1 [Compound 26],≤ 10
5,CN1CCc2c(Br)cc(Nc3ncc(C#N)c(Nc4cccc(N=S(C)(C)=O)n4)n3)cc2C1 [Compound 27],≤ 10
6,Cc1cc(Nc2ncc(C#N)c(Nc3cccc(N=S(C)(C)=O)n3)n2)cc2c1C1(CC1)CN(C)C2 [Compound 30],≤ 10
7,CCc1cc(Nc2ncc(C#N)c(Nc3cccc(N=S(C)(C)=O)n3)n2)cc2c1C1(CC1)CN(C)C2 [Compound 31],≤ 10
8,CN1Cc2cc(Nc3ncc(C#N)c(Nc4cccc(N=S(C)(C)=O)n4)n3)cc(C3CC3)c2C2(CC2)C1 [Compound 32],≤ 10
9,CC(C)c1cc(Nc2ncc(C#N)c(Nc3cccc(N=S(C)(C)=O)n3)n2)cc2c1C1(CC1)CN(C)C2 [Compound 33],≤ 10
10,COc1cc(Nc2ncc(C#N)c(Nc3cccc(N=S(C)(C)=O)n3)n2)cc2c1C1(CC1)CN(C)C2 [Compound 34],≤ 10
11,CN1Cc2cc(Nc3ncc(C#N)c(Nc4cccc(N=S(C)(C)=O)n4)n3)ccc2C(C)(C)C1 [Compound 35],≤ 10
12,Cc1cc(Nc2ncc(C#N)c(Nc3cccc(N=S(C)(C)=O)n3)n2)cc2c1C(C)(C)CN(C)C2 [Compound 36],≤ 10
13,CCc1cc(Nc2ncc(C#N)c(Nc3cccc(N=S(C)(C)=O)n3)n2)cc2c1C(C)(C)CN(C)C2 [Compound 37],≤ 10
14,CC(C)c1cc(Nc2ncc(C#N)c(Nc3cccc(N=S(C)(C)=O)n3)n2)cc2c1C(C)(C)CN(C)C2 [Compound 38],≤ 10
15,CN1Cc2cc(Nc3ncc(C#N)c(Nc4cccc(N=S(C)(C)=O)n4)n3)cc(C3CC3)c2C(C)(C)C1 [Compound 39],≤ 10
16,COc1cc(Nc2ncc(C#N)c(Nc3cccc(N=S(C)(C)=O)n3)n2)cc2c1C(C)(C)CN(C)C2 [Compound 40],≤ 10
17,CN1CCc2c(cc(Nc3ncc(C#N)c(Nc4cccc(N=S(C)(C)=O)n4)n3)cc2N(C)C)C1 [Compound 44],≤ 10
18,CCN1CCc2ccc(Nc3ncc(C#N)c(Nc4cccc(N=S(C)(C)=O)n4)n3)cc2C1 [Compound 45],≤ 10
19,CS(C)(=O)=Nc1cccc(Nc2nc(Nc3ccc4c(c3)CN(C3CC3)CC4)ncc2C#N)n1 [Compound 47],≤ 10
20,CS(C)(=O)=Nc1cccc(Nc2nc(Nc3ccc4c(c3)CN(CCO)CC4)ncc2C#N)n1 [Compound 48],≤ 10
21,COCCN1CCc2ccc(Nc3ncc(C#N)c(Nc4cccc(N=S(C)(C)=O)n4)n3)cc2C1 [Compound 49],≤ 10
22,CN(C)CCN1CCc2ccc(Nc3ncc(C#N)c(Nc4cccc(N=S(C)(C)=O)n4)n3)cc2C1 [Compound 50],≤ 10
23,CN(C)C1CCc2ccc(Nc3ncc(C#N)c(Nc4cccc(N=S(C)(C)=O)n4)n3)cc2C1 (stereo not shown) [Compound 51],≤ 10
24,CN(C)C1CCCc2ccc(Nc3ncc(C#N)c(Nc4cccc(N=S(C)(C)=O)n4)n3)cc2C1 (stereo not shown) [Compound 53],≤ 10

row,Structure (SMILES),IC50 [nM]
1,CN1CCCc2ccc(Nc3ncc(C#N)c(Nc4cccc(N=S(C)(C)=O)n4)n3)cc2C1 [Compound 54],≤ 10
2,CN(C)C1CC=Cc2ccc(Nc3ncc(C#N)c(Nc4cccc(N=S(C)(C)=O)n4)n3)cc2C1 (stereo not shown) [Compound 56],≤ 10
3,CN1CCOc2ccc(Nc3ncc(C#N)c(Nc4cccc(N=S(C)(C)=O)n4)n3)cc2C1 [Compound 57],≤ 10
4,CN1CCSc2ccc(Nc3ncc(C#N)c(Nc4cccc(N=S(C)(C)=O)n4)n3)cc2C1 [Compound 58],≤ 10
5,CN1Cc2ccc(Nc3ncc(C#N)c(Nc4cccc(N=S(C)(C)=O)n4)n3)cc2C1 [Compound 59],≤ 10
6,CN1CCc2ccc(Nc3ncc(C#N)c(Nc4ccnc(N=S(C)(C)=O)c4)n3)cc2C1 [Compound 65],≤ 10
7,CN1CCc2ccc(Nc3ncc(C#N)c(Nc4cncc(N=S(C)(C)=O)c4)n3)cc2C1 [Compound 66],≤ 10
8,CN1CCc2ccc(Nc3ncc(C#N)c(Nc4cc(N=S(C)(C)=O)ccn4)n3)cc2C1 [Compound 67],≤ 10
9,CN1CCc2ccc(Nc3ncc(C#N)c(Nc4cncc(N=S(C)(C)=O)n4)n3)cc2C1 [Compound 68],≤ 10
10,CN1CCc2ccc(Nc3ncc(C#N)c(Nc4ccnc(N=S(C)(C)=O)n4)n3)cc2C1 [Compound 69],≤ 10
11,CN1CCc2ccc(Nc3ncc(C#N)c(Nc4nccc(N=S(C)(C)=O)n4)n3)cc2C1 [Compound 70],≤ 10
12,CN1CCc2ccc(Nc3ncc(C#N)c(Nc4cc5ccccc5c(N=S(C)(C)=O)n4)n3)cc2C1 [Compound 71],≤ 10
13,CN1CCc2ccc(Nc3ncc(C#N)c(Nc4nc(N=S(C)(C)=O)cc5ccccc45)n3)cc2C1 [Compound 72],≤ 10
14,Cc1cc(Nc2ncc(C#N)c(Nc3ccc(F)c(N=S(C)(C)=O)n3)n2)cc2c1CCN(C)C2 [Compound 73],≤ 10
15,Cc1cc(Nc2ncc(C#N)c(Nc3cc(F)cc(N=S(C)(C)=O)n3)n2)cc2c1CCN(C)C2 [Compound 74],≤ 10
16,Cc1cc(Nc2ncc(C#N)c(Nc3nc(N=S(C)(C)=O)ccc3F)n2)cc2c1CCN(C)C2 [Compound 75],≤ 10
17,CN1CCc2ccc(Nc3ncc(C#N)c(-n4ccc5c(N=S(C)(C)=O)cccc54)n3)cc2C1 [Compound 76],≤ 10
18,CN1CCc2ccc(Nc3ncc(C#N)c(Nc4nc(N=S(C)(C)=O)cc5[nH]ccc45)n3)cc2C1 [Compound 81],≤ 10
19,CN1CCc2ccc(Nc3ncc(C#N)c(Nc4nc(N=S(C)(C)=O)cc5c4CCN5)n3)cc2C1 [Compound 82],≤ 10
20,CN1CCc2ccc(Nc3ncc(C#N)c(Nc4cc5c(c(N=S(C)(C)=O)n4)CCC5)n3)cc2C1 [Compound 83],≤ 10
21,COc1ccc(Nc2nc(Nc3ccc4c(c3)CN(C)CC4)ncc2C#N)nc1N=S(C)(C)=O [Compound 84],≤ 10
22,CN1CCc2c(cc(Nc3ncc(C#N)c(Nc4cccc(N=S(C)(C)=O)n4)n3)cc2C(C)(C)C)C1 [Compound 86],≤ 10
23,Cc1cc(Nc2ncc(C#N)c(Nc3ccc4c(n3)N=S(C)(=O)C4)n2)cc2c1CCN(C)C2 (stereo not shown) [Compound 88],> 50
24,CCc1cc(Nc2ncc(C#N)c(Nc3ccc(F)c(N=S(C)(C)=O)n3)n2)cc2c1CCN(C)C2 [Compound 89],≤ 10

row,Structure (SMILES),IC50 [nM]
1,COc1cc(Nc2ncc(C#N)c(Nc3ccc(F)c(N=S(C)(C)=O)n3)n2)cc2c1CCN(C)C2 [Compound 90],≤ 10
2,CC(C)c1cc(Nc2ncc(C#N)c(Nc3ccc(F)c(N=S(C)(C)=O)n3)n2)cc2c1CCN(C)C2 [Compound 91],≤ 10
3,CCOc1cc(Nc2ncc(C#N)c(Nc3ccc(F)c(N=S(C)(C)=O)n3)n2)cc2c1CCN(C)C2 [Compound 92],≤ 10
4,CC(C)Oc1cc(Nc2ncc(C#N)c(Nc3ccc(F)c(N=S(C)(C)=O)n3)n2)cc2c1CCN(C)C2 [Compound 93],≤ 10
5,CN1CCc2c(cc(Nc3ncc(C#N)c(Nc4ccc(F)c(N=S(C)(C)=O)n4)n3)cc2C2CC2)C1 [Compound 94],≤ 10
6,CN1CCc2c(cc(Nc3ncc(C#N)c(Nc4cccc(N=S(C)(C)=O)n4)n3)cc2N2CCC2)C1 [Compound 95],≤ 10
7,CN1CCc2c(cc(Nc3ncc(C#N)c(Nc4ccc(F)c(N=S(C)(C)=O)n4)n3)cc2N2CCC2)C1 [Compound 96],≤ 10
8,CN1CCc2c(cc(Nc3ncc(C#N)c(Nc4ccc(F)c(N=S(C)(C)=O)n4)n3)cc2C2CCC2)C1 [Compound 98],≤ 10
9,CN1CCc2c(cc(Nc3ncc(C#N)c(Nc4ccc(F)c(N=S(C)(C)=O)n4)n3)cc2C2CCCC2)C1 [Compound 99],≤ 10
10,CN1CCc2c(cc(Nc3ncc(C#N)c(Nc4ccc(F)c(N=S(C)(C)=O)n4)n3)cc2C2=CCCC2)C1 [Compound 100],≤ 10
11,CN1CCc2c(cc(Nc3ncc(C#N)c(Nc4ccc(F)c(N=S(C)(C)=O)n4)n3)cc2C2(C)CC2)C1 [Compound 102],≤ 10
12,CN1CCc2ccc(Nc3ncc(C#N)c(Nc4cccc(N=S(C)(C)=O)n4)n3)cc2C12CC2 [Compound 103],≤ 10
13,CN1CCc2ccc(Nc3ncc(C#N)c(Nc4cccc(N=S(C)(C)=O)n4)n3)cc2C1(C)C [Compound 104],≤ 10
14,CN1CCc2c(cc(Nc3ncc(C#N)c(Nc4cccc(N=S(C)(C)=O)n4)n3)cc2-c2ccoc2)C1 [Compound 114],≤ 10
15,CN1CCc2c(CC3CCC3)cc(Nc3ncc(C#N)c(Nc4cccc(N=S(C)(C)=O)n4)n3)cc2C1 [Compound 125],≤ 10
16,CN1CCc2c(cc(Nc3ncc(C#N)c(Nc4cccc(N=S(C)(C)=O)n4)n3)cc2-c2ccncc2)C1 [Compound 126],≤ 10
17,CN1CCc2c(CCO)cc(Nc3ncc(C#N)c(Nc4cccc(N=S(C)(C)=O)n4)n3)cc2C1 [Compound 132],≤ 10
18,CN1CCc2c(CN)cc(Nc3ncc(C#N)c(Nc4cccc(N=S(C)(C)=O)n4)n3)cc2C1 [Compound 134],≤ 10
19,CN1CCc2c(CCN)cc(Nc3ncc(C#N)c(Nc4cccc(N=S(C)(C)=O)n4)n3)cc2C1 [Compound 135],≤ 10
20,CN1CCc2c(CCCN)cc(Nc3ncc(C#N)c(Nc4cccc(N=S(C)(C)=O)n4)n3)cc2C1 [Compound 136],≤ 10
21,CN1CCc2c(cc(Nc3ncc(C#N)c(Nc4cncc(N=S(C)(C)=O)n4)n3)cc2C2CC2)C1 [Compound 138],≤ 10
22,CN1CCc2c(cc(Nc3ncc(C#N)c(Nc4nccc(N=S(C)(C)=O)n4)n3)cc2C2CC2)C1 [Compound 139],≤ 10
